Read-outs that look alike come from different tables or passages of the source.
Assays:
[1] = test system: HAdV-37 virions (attachment to HCE cells); experiment: Cell-binding assay: attachment of 35S-labeled HAdV-37 virions to HCE cells; format: cell-based; settings: read-out: IC50, preventing attachment of HAdV-37 virions to HCE cells
Method: In order to investigate the efficiency of the newly synthesized compounds (ME0385, ME0386, ME0407, ME0408, ME0461, and ME0462) to prevent the attachment of HAdV-37 virions to HCE cells, cell-binding assays based on ^35S-labeled virions were performed. Based on previous studies ME0322, sialic acid and GD1a glycan were used as reference compounds (Nilsson et al N. Nat. Med. 2011, 17, 105 and Spjut et al Angew. Chem. Int. Ed. 2011, 50, 6519). The assays were carried out (see below for further details) essentially as previously described (Arnberg et al J. Virol. 2000, 74, 42 and Arnberg et al J. Virol. 2000, 74, 7691).
In brief, ^35S-labeled HAdV-37 virions were pre-incubated with or without the trivalent sialic acid derivatives, GD1a glycan and sialic acid at various concentrations. The mixtures were incubated with HCE cells and unbound virions were then washed away. Finally, the cell-associated radioactivity was counted by using a scintillation counter.
S-labeled HAdV-37 virions (5×10^8/well) were pre-incubated in binding buffer (50 μL; BB: Dulbecco's modified eagle's medium containing 1% BSA (Roche AB, Stockholm, Sweden) and HEPES (20 mM, EuroClone, Milan, Italy), pH 7.5) with or without the trivalent sialic acid derivatives, GD1a glycan or sialic acid at various concentrations (cf. FIG. 1a) in a 96-well microplate at +4° C. for 1 h. These mixtures were then added to HCE cells prepelleted (1×10^5/well) in a 96-well microplate. After re-suspension, the mixtures were incubated at +4° C. for 1 h. Finally, unbound virions were washed away with BB and the cell-associated radioactivity was counted by using a Wallac 1409 scintillation counter.

[2] = test system: HAdV-37 virions (infection of HCE cells); experiment: Infection assay: infection of HCE cells by HAdV-37 virions (immunofluorescence); format: cell-based; settings: for prevention of infection of HCE cells by HAdV-37 virions compared with ME0322: in words; for IC50: Human adenovirus sp., HCE, 44 h of infection, immunofluorescence, read-out: IC50, preventing infection of HCE cells by HAdV-37 virions
Method: In order to confirm the results from the cell-binding assays and to further evaluate our set of compounds, infection experiments were performed (FIGS. 1b, 3a and 3b). The assays were carried out (see below for further details) essentially as previously described ((Arnberg et al. J. Virol. 2000, 74, 42 and Arnberg et al. J. Virol. 2000, 74, 7691)).
In brief, unlabeled virions were pre-incubated with or without the trivalent sialic acid derivatives, GD1a glycan or sialic acid at various concentrations. These mixtures were then added to HCE cells and incubated at +4° C. Unbound virions were washed away, the resulting mixtures were incubated at +37° C. and a synchronized infection—all virions enter the cells simultaneously—was then obtained. After 44 h of infection, the cells were rinsed, fixed, incubated with rabbit polyclonal anti-HAdV-37 antibodies prior to being washed and stained. Finally, the cells were washed and examined by immunofluorescence microscopy.
7×10^7 non-labeled virions/well in 48-well plates were pre-incubated in serum free growth media (2004), with or without the trivalent sialic acid derivatives, GD1a glycan or sialic acid at various concentrations (cf. FIG. 2B) at +4° C. After 1 h, the mixtures were transferred to new 48-well plates containing 1×10^5 adherent HCE cells/well and incubated at +4° C. After 1 h, unbound virions were washed away with serum free growth media and the resulting mixtures were incubated with growth media containing 1% fetal bovine serum (FBS) at +37° C. After 44 h of infection, the cells were rinsed in PBS, fixed with cold (−20° C.) 99% methanol for 10 min and incubated with rabbit polyclonal anti-HAdV-37 antibodies diluted 1:200 in PBS (pH 7.4) at room temperature. After 1 h, the cells were washed in PBS and stained with FITC-labeled swine anti-rabbit IgG antibodies (Dako-cytomation, Glostrup, Denmark) diluted 1:100 in PBS for 1 h at room temperature. Finally, the cells were washed in PBS and examined in an immunofluorescence microscope (Axiovert 25, Carl Zeiss, Germany; 10× magnification).

[3] = target: HAdV-37 fiber knob (Human adenovirus D37, UniProt Q64823); experiment: Surface plasmon resonance (SPR), immobilized HAdV-37 fiber knobs; format: binding, human adenovirus HAdV-37; settings: for binding mode with HAdV-37 fiber knob: SPR
Method: Finally, ME0385, ME0386 and ME0322 were investigated in surface plasmon resonance (SPR) experiments and their respective binding affinities (Kds) for immobilized HAdV-37 fiber knobs were determined (see below for further details). […] It is also worth noting the influence of the HAdV-37 fiber knob construct on the Kd values.
The kinetic measurements were performed using a surface plasmon resonance BIAcore T100 instrument. HAdV-37 knob proteins were covalently coupled to a CMS sensorchip using the amine coupling kit (GE Healthcare), to a concentration of 14-15 ng/mm^2 (˜15000RU). Binding of the trivalent sialic acid conjugates ME0322, ME0385 and ME0386 to the immobilized knob was performed in 10 mM HEPES, 0.15 M NaCl and 0.05% P20 pH 7.4 (1×HBS-EP+, GE Healthcare). The concentrations of trivalent sialic acid used were 400, 200, 100, 50 (twice), 25, 12.5 (twice), 6.25, 3.125, 1.56 and 0.78 μM. The binding affinities (Kds) were calculated using Biacore T100 evaluation software.

[4] = test system: HAdV-37 virions (attachment to HCE cells); settings: reported in the art (background), cited from earlier work
[5] = test system: HAdV-37 virions (infection of HCE cells); settings: cited from earlier work
[6] = 35S-labeled virions pre-incubated with compound, +4° C., HCE cells

| Molecule | IC50 [1, 6] [µM] | IC50 ([1]; Human adenovirus sp., HCE) [µM] | Kd [3] [µM] | binding mode with HAdV-37 fiber knob [3] | IC50 [2] [µM] | also measured |
| --- | --- | --- | --- | --- | --- | --- |
| Tris ((4-(2-O-(5-N-acetamido-3,5-dideoxy-D-glycero-α-D-galacto-2-nonulopyranosylonic acid))-2-oxoethyl-1H-1,2,3-triazol-1-yl)ethyl)amine [ME0461] | 0.376 | – | – | – | – | prevention of infection of HCE cells by HAdV-37 virions compared with ME0322 [2]: more efficiently than ME0322 |
| CC(=O)N[C@H]1[C@H]([C@H](O)[C@H](O)CO)OC(O)(C(=O)O)C[C@@H]1O (some centres unmarked) [sialic acid] | – | 1200 | – | – | – | – |
| Tris ((1-(2-O-(5-N-propanoylamido-3,5-dideoxy-D-glycero-α-D-galacto-2-nonylopyranosylonic acid))-2-oxoethyl-1H-1,2,3-triazol-4-yl)methyl)amine [ME0408] | 4.5 | – | – | – | – | – |
| CCC(=O)N[C@H]1[C@H]([C@H](O)[C@H](O)CO)O[C@@](OCCCn2cc(CN(Cc3cn(CCCO[C@]4(C(=O)O)C[C@H](O)[C@@H](NC(=O)CC)[C@H]([C@H](O)[C@H](O)CO)O4)nn3)Cc3cn(CCCO[C@]4(C(=O)O)C[C@H](O)[C@@H](NC(=O)CC)[C@H]([C@H](O)[C@H](O)CO)O4)nn3)nn2)(C(=O)O)C[C@@H]1O [ME0407] | 23.4 | – | – | – | – | – |
| CC(=O)NC1C(O)CC(OCCn2cc(CN(Cc3cn(CCOC4(C(=O)O)CC(O)C(NC(C)=O)C(C(O)C(O)CO)O4)nn3)Cc3cn(CCOC4(C(=O)O)CC(O)C(NC(C)=O)C(C(O)C(O)CO)O4)nn3)nn2)(C(=O)O)OC1C(O)C(O)CO [ME0385, Tris ((1-(2-O-(5-N-acetamido-3,5-dideoxy-D-glycero-α-D-galacto-2-nonylopyranosylonic acid))-2-oxoethyl-1H-1,2,3-triazol-4-yl)methyl)amine] | – | 0.107 | 76 | one-to-one binding mode | 0.166 | – |
| CC(=O)NC1C(O)CC(OCCCCCNc2c(NCCN(CCNc3c(NCCCCCOC4(C(=O)O)CC(O)C(NC(C)=O)C(C(O)C(O)CO)O4)c(=O)c3=O)CCNc3c(NCCCCCOC4(C(=O)O)CC(O)C(NC(C)=O)C(C(O)C(O)CO)O4)c(=O)c3=O)c(=O)c2=O)(C(=O)O)OC1C(O)C(O)CO (centres unmarked) [ME0322] | – | – | – | one-to-one binding mode | – | potency compared with natural sialic acid monosaccharide ([4]; assay not specified): four orders of magnitude more potent than the natural sialic acid monosaccharide; preventing binding of the virus, compared with 17-valent sialic acid-HSA conjugate [4]: as effective as 17-valent sialic acid-HSA conjugate; Kd ([3]; read-out: binding affinity (Kd) for immobilized HAdV-37 fiber knobs, BIAcore T100, HBS-EP+ pH 7.4): 126 µM; IC50 ([5]; infection of HCE cells by HAdV-37, earlier estimate, read-out: half maximal inhibitory concentration, previously estimated): 0.38 µM; inhibiting infection of HCE cells by HAdV-37, compared with HSA-conjugate ([5]; reported in the art (background)): far more potent than the HSA-conjugate |
| CC(=O)N[C@@H]1C(O)C[C@](OCCCn2cc(CN(Cc3cn(CCCO[C@@]4(C(=O)O)CC(O)[C@H](NC(C)=O)C(C(O)C(O)CO)O4)nn3)Cc3cn(CCCO[C@]4(C(=O)O)CC(O)[C@@H](NC(C)=O)C(C(O)C(O)CO)O4)nn3)nn2)(C(=O)O)OC1C(O)C(O)CO (stereo partly drawn) [ME0386, Tris ((1-(2-O-(5-N-acetamido-3,5-dideoxy-D-glycero-α-D-galacto-2-nonylopyranosylonic acid))-3-oxopropyl-1H-1,2,3-triazol-4-yl)methyl)amine] | – | 0.04 | 69 | one-to-one binding mode | 0.118 | – |
| CC(=O)N[C@@H]1C(O)C[C@](OCc2cn(CCN(CCn3cc(CO[C@]4(C(=O)O)CC(O)[C@@H](NC(C)=O)C(C(O)C(O)CO)O4)nn3)CCn3cc(CO[C@]4(C(=O)O)CC(O)[C@@H](NC(C)=O)C(CO)(C(O)CO)O4)nn3)nn2)(C(=O)O)OC1C(O)C(O)CO (stereo partly drawn) [ME0462, Tris ((4-(2-O-(5-N-acetamido-3,5-dideoxy-D-glycero-α-D-galacto-2-nonulopyranosylonic acid))-2-oxomethyl-1H-1,2,3-triazol-1-yl)ethyl)amine] | – | 0.0014 | 9.5 | – | 0.0021 | prevention of infection of HCE cells by HAdV-37 virions compared with ME0322 [2]: more efficiently than ME0322 |
